Assay results taken from PubChem BioAssay (NCI).
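Test compounds were applied to cells in 96-well plates for 48 hours at 5 doses. GI50: concentration for 50% inhibition of growth. TGI marks complete inhibition of growth.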

Assays:
Assay in all cases: inhibition of tumour cell growth, NCI panel, 48 h
[1] = test system: HCT-15 colon
[2] = test system: MCF7 breast
[3] = test system: CCRF-CEM leukemia
[4] = test system: SK-MEL-2 melanoma
[5] = test system: A549 NSCLC
[6] = test system: OVCAR-3 ovarian
[7] = test system: MDA-MB-231 breast
[8] = test system: COLO 205 colon
[9] = test system: SW-620 colon
[10] = test system: U251 CNS
[11] = test system: UO-31 renal
[12] = test system: SR leukemia
[13] = test system: DU-145 prostate
[14] = test system: RPMI-8226 leukemia
[15] = test system: T-47D breast
[16] = test system: HOP-62 NSCLC
[17] = test system: MOLT-4 leukemia
[18] = test system: ACHN renal
[19] = test system: SK-MEL-5 melanoma
[20] = test system: 786-0 renal
[21] = test system: PC-3 prostate
[22] = test system: OVCAR-8 ovarian
[23] = test system: IGROV1 ovarian
[24] = test system: HOP-92 NSCLC
[25] = test system: SF-295 CNS
[26] = test system: SF-539 CNS
[27] = test system: M14 melanoma
[28] = test system: UACC-257 melanoma
[29] = test system: KM12 colon
[30] = test system: LOX IMVI melanoma
[31] = test system: RXF 393 renal
[32] = test system: EKVX NSCLC
[33] = test system: SN12C renal
[34] = test system: HL-60(TB) leukemia
[35] = test system: SNB-19 CNS
[36] = test system: TK-10 renal
[37] = test system: CAKI-1 renal
[38] = test system: K-562 leukemia
[39] = test system: A498 renal
[40] = test system: NCI-H226 lung
[41] = test system: UACC-62 melanoma
[42] = test system: HCT-116 colon
[43] = test system: NCI-H460 lung
[44] = test system: HS 578T breast
[45] = test system: NCI-H522 lung
[46] = test system: SK-OV-3 ovarian
[47] = test system: MDA-MB-435
[48] = test system: BT-549 breast
[49] = test system: SF-268 CNS

Q: With `O=C(Nc1ccc(Cl)cc1Cl)c1ccc(NC2=C(Cl)C(=O)N(Cc3ccccc3)C2=O)cc1` as the compound, how does the GI50 [1] read?
A: 16.8 µM

Q: What about the TGI [1] of the same compound?
A: > 100 µM

Q: And the GI50 [2]?
A: 5.91 µM

Q: And the TGI [2]?
A: 30.6 µM

Q: What about the GI50 [3] of the same compound?
A: 1990 nM

Q: And the TGI [3]?
A: 6.84 µM

Q: What about the GI50 [4] of the same compound?
A: 54.1 µM

Q: What about the TGI [4] of the same compound?
A: > 100 µM

Q: And the GI50 [5]?
A: 25.9 µM

Q: And the TGI [5]?
A: 66.1 µM

Q: And the GI50 [6]?
A: 16.3 µM

Q: And the TGI [6]?
A: 33.5 µM

Q: And the GI50 [7]?
A: 17.4 µM

Q: What about the TGI [7] of the same compound?
A: 31.2 µM

Q: And the GI50 [8]?
A: 16.3 µM

Q: What about the TGI [8] of the same compound?
A: 38.8 µM

Q: And the GI50 [9]?
A: 34 µM

Q: What about the TGI [9] of the same compound?
A: > 100 µM

Q: What about the GI50 [10] of the same compound?
A: 12.2 µM

Q: And the TGI [10]?
A: 24.5 µM

Q: What about the GI50 [11] of the same compound?
A: 3.56 µM

Q: And the TGI [11]?
A: > 100 µM

Q: And the GI50 [12]?
A: 1350 nM

Q: What about the TGI [12] of the same compound?
A: 3.12 µM

Q: And the GI50 [13]?
A: 18.7 µM

Q: What about the TGI [13] of the same compound?
A: 39.4 µM

Q: And the GI50 [14]?
A: 2840 nM

Q: And the TGI [14]?
A: 9.04 µM

Q: What about the GI50 [15] of the same compound?
A: 23.4 µM

Q: And the TGI [15]?
A: > 100 µM

Q: What about the GI50 [16] of the same compound?
A: 20.2 µM

Q: What about the TGI [16] of the same compound?
A: 40.5 µM

Q: What about the GI50 [17] of the same compound?
A: 3.57 µM

Q: And the TGI [17]?
A: 11.3 µM

Q: What about the GI50 [18] of the same compound?
A: 18.9 µM

Q: And the TGI [18]?
A: 33.7 µM

Q: What about the GI50 [19] of the same compound?
A: 20.6 µM

Q: What about the TGI [19] of the same compound?
A: 65.8 µM

Q: And the GI50 [20]?
A: 21.6 µM

Q: What about the TGI [20] of the same compound?
A: > 100 µM

Q: And the GI50 [21]?
A: 13.4 µM

Q: And the TGI [21]?
A: 26.2 µM

Q: What about the GI50 [22] of the same compound?
A: 12.8 µM

Q: What about the TGI [22] of the same compound?
A: 25.4 µM

Q: And the GI50 [23]?
A: 12.2 µM

Q: What about the TGI [23] of the same compound?
A: > 100 µM

Q: What about the GI50 [24] of the same compound?
A: 13.1 µM

Q: And the TGI [24]?
A: 26.7 µM

Q: What about the GI50 [25] of the same compound?
A: 19.5 µM

Q: What about the TGI [25] of the same compound?
A: 38.1 µM

Q: And the GI50 [26]?
A: 18.9 µM

Q: What about the TGI [26] of the same compound?
A: 33.1 µM

Q: And the GI50 [27]?
A: 64.6 µM

Q: What about the TGI [27] of the same compound?
A: > 100 µM

Q: What about the GI50 [28] of the same compound?
A: 26.2 µM

Q: What about the TGI [28] of the same compound?
A: 71.8 µM

Q: What about the GI50 [29] of the same compound?
A: 21.1 µM

Q: What about the TGI [29] of the same compound?
A: 64.4 µM

Q: And the GI50 [30]?
A: 6.6 µM

Q: And the TGI [30]?
A: 19.1 µM

Q: And the GI50 [31]?
A: 17.6 µM

Q: What about the TGI [31] of the same compound?
A: 38.8 µM

Q: What about the GI50 [32] of the same compound?
A: 21.7 µM

Q: And the TGI [32]?
A: 46.1 µM

Q: And the GI50 [33]?
A: 20.3 µM

Q: What about the TGI [33] of the same compound?
A: 42.8 µM

Q: What about the GI50 [34] of the same compound?
A: 2500 nM

Q: What about the TGI [34] of the same compound?
A: 9.01 µM

Q: What about the GI50 [35] of the same compound?
A: 17.9 µM

Q: And the TGI [35]?
A: 31.9 µM

Q: What about the GI50 [36] of the same compound?
A: 25.5 µM

Q: What about the TGI [36] of the same compound?
A: 81.9 µM

Q: What about the GI50 [37] of the same compound?
A: 26.4 µM

Q: And the TGI [37]?
A: 63.5 µM

Q: And the GI50 [38]?
A: 6.24 µM

Q: And the TGI [38]?
A: 18.4 µM

Q: And the GI50 [39]?
A: 31.3 µM

Q: What about the TGI [39] of the same compound?
A: 79.7 µM

Q: And the GI50 [40]?
A: 20.5 µM

Q: And the TGI [40]?
A: 45.8 µM

Q: What about the GI50 [41] of the same compound?
A: 18.6 µM

Q: What about the TGI [41] of the same compound?
A: 35.3 µM

Q: And the GI50 [42]?
A: 34.2 µM

Q: And the TGI [42]?
A: > 100 µM

Q: And the GI50 [43]?
A: 15.8 µM

Q: And the TGI [43]?
A: 37.9 µM

Q: What about the GI50 [44] of the same compound?
A: 23.5 µM

Q: What about the TGI [44] of the same compound?
A: 47 µM

Q: What about the GI50 [45] of the same compound?
A: 31.6 µM

Q: And the TGI [45]?
A: > 100 µM

Q: And the GI50 [46]?
A: 30.3 µM

Q: What about the TGI [46] of the same compound?
A: 78.8 µM

Q: And the GI50 [47]?
A: 32.5 µM

Q: And the TGI [47]?
A: > 100 µM

Q: What about the GI50 [48] of the same compound?
A: 15.6 µM

Q: What about the TGI [48] of the same compound?
A: 30 µM

Q: What about the GI50 [49] of the same compound?
A: 16.5 µM

Q: What about the TGI [49] of the same compound?
A: 36.6 µM
